Measured values published in patent publication US10508118B2, “Pyrimidopyrrole compounds, method for preparing the same, pharmaceutical compositions comprising the same and uses thereof” (Xiamen University, priority 2015, dated 2019).
Read-outs that look alike come from different tables or passages of the source.

Tests used:
Assay type in all cases: cell-based
[1] = target: T1, EML4-ALK-BaF3 (Homo sapiens, UniProt Q9UM73); experiment: Growth inhibition of EML4-ALK transformed BaF3 cells (MTS); conditions: for IC50: EML4-ALK-BaF3 cells, 48 hours, MTS
T1 construct: expressed in transfected cells; host or cells: Ba/F3 cells; the other entry of the earlier key: EML4 (Q9HC35, Echinoderm microtubule-associated protein-like 4)
Method: (§1) If compounds can inhibit the activity of ALK kinase or the activity of ALK signaling pathway, they can inhibit the growth of ALK transformed Ba/F3 cells. […] The broad-spectrum toxicity of compounds can be evaluated by determining the effect of the compounds on the growth of wild type BaF3 cells.
(§2) 1) Medium: DMEM (Dulbecco's modified eagle medium) or RPMI1640 (containing 10% fetal bovine serum, 100 μg/mL ampicillin, 100 μg/mL streptomycin).)
(§3) Reagents: MTS solution (2 mg/mL MTS (3-(4,5-dimethylthiazol-2-yl)-5-(3-carboxymethoxyphenyl)-2-(4-sulfophenyl)-2H-tetrazolium, inner salt); 100 μg/mL PES ([…])).
(§4) 3) Test of compound: Transformed Ba/F3 cells (EML4-ALK-BaF3, EML4-ALK(L1196M)-BaF3, NPM-ALK-BaF3) (2×10^4/well) were distributed into 96-well plates, with volume of cell sap of 90 μL, 10 μL of compounds in gradient concentration (the highest concentration 10 was μM, followed by 1/3 step by step dilution, a total of 8 concentrations were set, the system contained 0.1% DMSO (dimethyl sulfoxide)). The cell plates mixed with compounds were cultured in a cell incubator (37° C.; 5% CO2) for 48 hours, and the added 20 μL of MTS reaction solution, mixed and incubated in cell incubator (37° C.; 5% CO2) for 1-4 hours. The OD value at a wavelength of 490 nm was measured using eliasa (VARIOSKAN FLASH, Thermo). Three parallels were set up for each group, with a final concentration of 0.1% DMSO as negative control, and with medium without cells and compounds as blank control.
(§5) 4) Calculation of IC50 value: the semi inhibitory concentration of the compound acting on the cells was calculated using GradPad Prism 5 software according to the cell inhibitory rate measured.

[2] = target: T2, EML4-ALK (L1196M)-BaF3 (Homo sapiens, UniProt Q9UM73, L1196M); experiment: Growth inhibition of EML4-ALK (L1196M) transformed BaF3 cells (MTS); conditions: 48 hours
T2 construct: expressed in transfected cells; host or cells: Ba/F3 cells; the other entry of the earlier key: EML4 (Q9HC35, Echinoderm microtubule-associated protein-like 4)
Method: as §1, §2, §3, §4, §5

[3] = target: T3, NPM-ALK-BaF3 (Homo sapiens, UniProt Q9UM73); experiment: Growth inhibition of NPM-ALK transformed BaF3 cells (MTS); conditions: 48 hours
T3 construct: expressed in transfected cells; host or cells: Ba/F3 cells; the other entry of the earlier key: NPM1 (P06748, Nucleophosmin)
Method: (§6) The activity of compounds against ALK kinase was evaluated by inhibiting the growth of cellular ALK kinase EML4-ALK-BaF3, EML4-ALK (L1196M)-BaF3, NPM-ALK-BaF3, and wild type BaF3 (Proc. Natl. Acad. Sci. USA., 2006, 103, 3153-8.) The growth of cellular ALK kinase EML4-ALK-BaF3, EML4-ALK(L1196M)-BaF3, and NPM-ALK-BaF3 depends on their kinase activity. If compounds can inhibit the activity of ALK kinase or the activity of ALK signaling pathway, they can inhibit the growth of ALK transformed Ba/F3 cells. […] The broad-spectrum toxicity of compounds can be evaluated by determining the effect of the compounds on the growth of wild type BaF3 cells.
as §2, §3
as §4, with “control. The inhibition rate of cell growth was calculated by the following formula: Cell inhibition rate %=1−(OD experimental group−OD blank group)/(OD negative group−OD blank group)*100%” for “control.”
as §5

[4] = test system: wild type BaF3; experiment: Growth inhibition of wild type BaF3 cells (broad-spectrum toxicity); conditions: Mus musculus, BaF3, 48 h, MTS
Method: as §6, §2, §3
as §4, with “control. The inhibition rate of cell growth was calculated by the following formula: Cell inhibition rate %=1−(OD experimental group−OD blank group)/(OD negative group−OD blank group)*100%” for “control.”
as §5

[5] = Table 11, read-out: EML4-ALK (L1196M) (IC50 nM)
[6] = Table 12, read-out: L1196M (IC50 nM)

Row | SMILES | IC50 ([1]; Table 11) | IC50 [2, 5] | IC50 ([3]; Table 11) | IC50 ([4]; Table 11) | IC50 ([1]; Table 12) | IC50 [2, 6] | IC50 ([3]; Table 12) | IC50 ([4]; Table 12) | targeting selectivity ([1]; ratio of IC50 between wild-type BaF3 and ALK transformed BaF3 cells)
1 | CS(=O)(=O)c1ccccc1CNc1nc(Nc2ccc(N3CCC(O)CC3)cc2)nc2cc[nH]c12 [IN-3] | > 10000 nM | > 10000 nM | > 10000 nM | > 10000 nM | – | – | – | – | –
2 | CSc1ccccc1CNc1nc(Nc2ccc(S(N)(=O)=O)cc2)nc2cc[nH]c12 [IL-4] | 9510 nM | > 10000 nM | > 10000 nM | > 10000 nM | – | – | – | – | –
3 | CC(C)S(=O)(=O)c1ccccc1CNc1nc(Nc2ccc(S(N)(=O)=O)cc2)nc2ccn(C)c12 [IIL-4] | – | – | – | – | > 10000 nM | > 10000 nM | > 10000 nM | > 10000 nM | –
4 | COC(=O)c1ccccc1Nc1nc(Nc2ccc(N3CCOCC3)cc2OC)nc2cc[nH]c12 [IG-16] | 1370 nM | 1390 nM | 1740 nM | 2350 nM | – | – | – | – | –
5 | COC(=O)c1sccc1Nc1nc(Nc2ccc(N3CCC(N4CCN(C)CC4)CC3)cc2OC)nc2cc[nH]c12 [IK-2] | 669 nM | 451 nM | ~823 nM | ~913 nM | – | – | – | – | –
6 | CC(C)Sc1ccccc1CNc1nc(Nc2ccc(N3CCC(O)CC3)cc2)nc2ccn(C)c12 [IIJ-2] | – | – | – | – | 1710 nM | 1610 nM | 1610 nM | ~2860 nM | –
7 | COC(=O)c1ccccc1Nc1nc(Nc2ccc(N3CCC(O)CC3)cc2)nc2cc[nH]c12 [IG-3] | 2720 nM | 5040 nM | 6930 nM | 6870 nM | – | – | – | – | –
8 | COC(=O)c1ccccc1Sc1nc(Nc2ccc(N3CCC(N4CCN(C)CC4)CC3)cc2OC)nc2cc[nH]c12 [IU-2] | 4580 nM | 2670 nM | 4900 nM | ~8340 nM | – | – | – | – | –
9 | CC(C)S(=O)(=O)c1ccccc1Nc1nc(Nc2ccc(N3CCN(C)CC3)cc2)nc2ccn(C)c12 [IID-5] | – | – | – | – | ~1130 nM | ~1120 nM | ~2580 nM | ~7940 nM | –
10 | CCNc1nc(Nc2ccc(N3CCC(O)CC3)cc2)nc2cc[nH]c12 [IR-3] | > 10000 nM | > 10000 nM | > 10000 nM | > 10000 nM | – | – | – | – | –
11 | COc1cc(N2CCC(N3CCN(C)CC3)CC2)ccc1Nc1nc(Nc2ccccc2S(=O)(=O)C(C)C)c2c(ccn2C)n1 [IID-2] | – | – | – | – | 330 nM | 391 nM | 829 nM | 2910 nM | good targeting selectivity
12 | COc1cc(N2CCC(N3CCN(C)CC3)CC2)ccc1Nc1nc(Nc2ccccc2S(C)(=O)=O)c2[nH]ccc2n1 [IC-2] | 3680 nM | ~6860 nM | ~4910 nM | ~8770 nM | – | – | – | – | –
13 | COC(=O)c1ccccc1Oc1nc(Nc2ccc(N3CCC(N4CCN(C)CC4)CC3)cc2OC)nc2ccn(C)c12 [IIN-2] | – | – | – | – | ~2590 nM | 2220 nM | 2330 nM | 5630 nM | –
14 | COC(=O)c1ccccc1Sc1nc(Nc2ccc(N3CCC(N4CCCC4)CC3)cc2OC)nc2cc[nH]c12 [IU-5] | ~2880 nM | ~2510 nM | ~2850 nM | ~7720 nM | – | – | – | – | –
15 | CSc1ccccc1Nc1nc(Nc2ccc(N3CCN(C)CC3)cc2)nc2ccn(C)c12 [IIA-6] | – | – | – | – | 644 nM | 978 nM | 536 nM | 1370 nM | –
16 | CNc1nc(Nc2ccc(C(=O)N3CCOCC3)cc2OC)nc2cc[nH]c12 [IQ-5] | > 10000 nM | > 10000 nM | > 10000 nM | > 10000 nM | – | – | – | – | –
17 | CC(C)S(=O)(=O)c1ccccc1Nc1nc(Nc2ccc(S(N)(=O)=O)cc2)nc2ccn(C)c12 [IID-4] | – | – | – | – | ~3290 nM | ~6440 nM | ~6350 nM | 7540 nM | –

Row | SMILES | IC50 ([1]; Table 11) | IC50 [2, 5] | IC50 ([3]; Table 11) | IC50 ([4]; Table 11) | IC50 ([1]; Table 12) | IC50 [2, 6] | IC50 ([3]; Table 12) | IC50 ([4]; Table 12) | targeting selectivity ([1]; ratio of IC50 between wild-type BaF3 and ALK transformed BaF3 cells)
18 | COc1cc(N2CCN(C)CC2)ccc1Nc1nc(Nc2ccccc2S(C)(=O)=O)c2c(ccn2C)n1 [IIC-1] | – | – | – | – | 3530 nM | ~5890 nM | 5120 nM | ~8670 nM | –
19 | COc1cc(N2CCN(C)CC2)ccc1Nc1nc(NCc2ccccc2SC(C)C)c2c(ccn2C)n1 [IIJ-1] | – | – | – | – | ~865 nM | 544 nM | 627 nM | ~911 nM | –
20 | COc1cc(N2CCC(N3CCN(C)CC3)CC2)ccc1Nc1nc(Nc2ccccc2SC)c2c(ccn2C)n1 [IIA-2] | – | – | – | – | ~1110 nM | 1620 nM | 1400 nM | ~883 nM | –
21 | COc1cc(N2CCN(C)CC2)ccc1Nc1nc(Nc2ccccc2S(=O)(=O)C(C)C)c2[nH]ccc2n1 [ID-1] | 477 nM | 737 nM | 796 nM | ~8390 nM | – | – | – | – | –
22 | COC(=O)c1ccccc1Nc1nc(Nc2ccc(C(=O)N3CCC(N4CCN(C)CC4)CC3)cc2OC)nc2cc[nH]c12 [IG-12] | 6500 nM | 4130 nM | 4080 nM | ~7740 nM | – | – | – | – | –
23 | CSc1ccccc1Nc1nc(Nc2ccc(S(N)(=O)=O)cc2)nc2ccn(C)c12 [IIA-4] | – | – | – | – | 1300 nM | 1320 nM | 2700 nM | 2570 nM | –
24 | Cc1cc(Nc2nc(Nc3ccccc3S(=O)(=O)C(C)C)c3[nH]ccc3n2)c(OC(C)C)cc1C1CCN(C)CC1 [ID-6] | 1510 nM | ~2650 nM | 1020 nM | ~2840 nM | – | – | – | – | –
25 | CCOc1cc(C(=O)N2CCC(N3CCN(C)CC3)CC2)ccc1Nc1nc(Nc2ccccc2SC(C)C)c2c(ccn2C)n1 [IIB-5] | – | – | – | – | ~2720 nM | ~2780 nM | ~1370 nM | ~2870 nM | –
26 | CNc1nc(Nc2ccc(N3CCC(N4CCN(C)CC4)CC3)cc2OC)nc2cc[nH]c12 [IQ-2] | > 10000 nM | > 10000 nM | > 10000 nM | > 10000 nM | – | – | – | – | –
27 | CCNc1nc(Nc2ccc(N3CCN(C)CC3)cc2OC)nc2cc[nH]c12 [IR-1] | > 10000 nM | > 10000 nM | > 10000 nM | > 10000 nM | – | – | – | – | –
28 | CC(C)Sc1ccccc1Nc1nc(Nc2ccc(S(N)(=O)=O)cc2)nc2cc[nH]c12 [IB-3] | 4220 nM | 8700 nM | 8830 nM | > 10000 nM | – | – | – | – | –
29 | CC(C)S(=O)(=O)c1ccccc1Nc1nc(Nc2ccc(N3CCC(O)CC3)cc2)nc2cc[nH]c12 [ID-4] | 2860 nM | 6150 nM | ~8930 nM | > 10000 nM | – | – | – | – | –
30 | CC(C)Sc1ccccc1CNc1nc(Nc2ccc(S(N)(=O)=O)cc2)nc2cc[nH]c12 [IM-3] | 7530 nM | > 10000 nM | > 10000 nM | > 10000 nM | – | – | – | – | –
31 | CCOc1cc(C(=O)N2CCC(N3CCN(C)CC3)CC2)ccc1Nc1nc(Nc2ccccc2S(=O)(=O)C(C)C)c2c(ccn2C)n1 [IID-7] | – | – | – | – | 783 nM | ~2780 nM | ~982 nM | ~2580 nM | –
32 | CNc1nc(Nc2ccc(C(=O)N3CCN(C)CC3)cc2OC)nc2cc[nH]c12 [IQ-6] | > 10000 nM | > 10000 nM | > 10000 nM | > 10000 nM | – | – | – | – | –
33 | Cn1ccc2nc(Nc3ccc(S(N)(=O)=O)cc3)nc(NCc3ccccc3S(C)(=O)=O)c21 [IIK-4] | – | – | – | – | > 10000 nM | > 10000 nM | – | > 10000 nM | –
34 | CN1CCN(c2ccc(Nc3nc(NCc4ccccc4S(C)(=O)=O)c4[nH]ccc4n3)cc2)CC1 [IN-5] | > 10000 nM | > 10000 nM | > 10000 nM | – | – | – | – | – | –
